From patent US20030018025A1, “Certain 4-aminomethyl-2-substituted imidazole derivatives and 2-aminomethyl-4-substituted imidazole derivatives: new classes of dopamine receptor subtype specific ligands” (Neurogen Corporation, Corporation of the State of Delaware, priority 1995, published 2003)
“Also recorded” adds a separate entry of the source. Counter-ions that a name gives are not always drawn.

Experiments:
[1] = target: T1, human dopamine D4 receptor subtype (Homo sapiens, UniProt P21917); test: D4 receptor binding, displacement of [3H]YM-09151-2; conditions: Example XXXIX table
T1 construct: expressed in transfected cells
T1 sequence (P21917 1-419): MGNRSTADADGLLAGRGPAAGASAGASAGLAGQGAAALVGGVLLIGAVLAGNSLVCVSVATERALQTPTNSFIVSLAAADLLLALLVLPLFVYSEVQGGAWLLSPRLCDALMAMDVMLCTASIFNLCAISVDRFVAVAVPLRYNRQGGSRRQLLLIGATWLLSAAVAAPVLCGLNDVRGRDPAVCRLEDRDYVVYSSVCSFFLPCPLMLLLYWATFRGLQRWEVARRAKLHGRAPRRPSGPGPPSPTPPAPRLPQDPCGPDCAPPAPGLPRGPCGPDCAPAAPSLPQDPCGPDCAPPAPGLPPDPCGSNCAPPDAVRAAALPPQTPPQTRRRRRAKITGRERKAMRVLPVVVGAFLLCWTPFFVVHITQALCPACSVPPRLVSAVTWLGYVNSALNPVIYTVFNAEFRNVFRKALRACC
Procedure: Assay for D4 Receptor Binding Activity
Clonal cell lines expressing the human dopamine D4 receptor subtype were harvested in PBS and the cells centrifuged and the pellets stored at −80° C. until used in the binding assay. The pellets were resuspended and the cells lysed at 4° C. in 50 mM Tris pH 7.4 buffer containing 120 mM NaCl, 1 mM EDTA and 5 mM MgCl2. The homogenate is centrifuged at 48000× g for 10 minutes at 4° C. The resulting pellet is resuspended in fresh buffer and centrifuged again. After resuspension of the pellet in fresh buffer at […] aliquot is removed for protein determination. The remaining homogenate is centrifuged as above, the supernatant removed and the pellet stored at 4° C. until needed at which time it is resuspended to a final concentration of […] with 50 mM Tris buffer (pH 7.4) and 120 mM NaCl just prior to use. Incubations were carried out for 60 minutes at 25° C. in the presence of 0.1 nM [^3H] YM-09151-2. The incubation was terminated by rapid filtration through Whatman GF/C filters and rinsed with 2×4 ml washes of chilled 50 mM Tris (pH 7.4) and 120 mM NaCl. Non-specific binding was determined with […] spiperone and radioactivity determined by coiunting in an LKB beta counter. Binding parameters were determined by non-linear least squares regression analysis, from which the inhibition constant (Ki) could be calculated for each test compound. The binding characteristics of some examples of this patent are shown in Table 2 for the dopamine D4 binding assay.

[2] = target: T2, Dopamine Receptor D3 (Homo sapiens, UniProt P35462); test: D3 receptor binding activity (Example XXXIX)
T2 construct: expressed in transfected cells; host or cells: BHK 293 cells (so in the source)
Procedure: (§1) Striatial tissue is dissected from adult male Sprague Dawley rats or BHK 293 cells are harvested containing recombinantly produced D2 or D3 receptors. The sample is homogenized in 100 volumes (w/vol) of 0.05 M Tris HCl buffer at 4° C. and pH 7.4. The sample is then centrifuged at 30,000× g and resuspended and rehomogenized. The sample is then centrifuged as described and the final tissue sample is frozen until use. The tissue is resuspended 1:20 (wt/vol) in 0.05 M Tris HCl buffer containing 100 mM NaCl.
(§2) Incubations are carried out at […] and contain 0.5 ml of tissue sample, 0.5 nM ^3H-raclopride and the compound of interest in a total incubation volume of 1.0 ml.
(§3) The following compounds were assayed for D2, D3, and D4 receptor binding activity using the assays described above.

[3] = system: male Sprague Dawley rats; test: Step-down passive avoidance task; type: in vivo, rat
Procedure: Method Non-naive male Sprague Dawley rats (SASCO St Louis) weighing between […], were housed in groups of three in a temperature and humidity controlled vivarium having a 12 hour light/dark cycle. Animals had ad lib access to food and water.
Clozapine was dissolved in 50% PEG and administered in a dose range of from 0.25 to 2 mg/kg. Both drugs were administered intravenously 5 minutes prior to training in both learning tasks
A step-down passive avoidance platform 4 (cm)×7(cm) was placed in the center of an electrified gris floor, which was contained within a large (45×45×50 cm) white translucent plexiglas enclosure having a closable lid. The bars of the grip were spaced 1.5 cm apart and were wired to a BRS-LVE shock generator/scrambler which was set to deliver a 2 mA 6 second shock. Four passive avoidance boxes were automated by customer software (Labview) and commercial interface modules (National Instruments) connected to a computer The timing and delivery of the shock as well as the latency to steo down and the number of trials taken to reach criterion during training was under the control of the computer. […]
Testing was conduced approximately 24 hours after training, Drug-free animals were placed on the platform in the box in which they were trained and the latency to step down onto the unshocked floor was recorded for one trial. […]

[4] = target: T3, dopamine D4 receptors in rat hippocampus (Rattus norvegicus, UniProt P30729); test: Binding to D4 receptors in rat hippocampus
T3 construct: from tissue; host or cells: rat hippocampus
T3 sequence (P30729 1-387): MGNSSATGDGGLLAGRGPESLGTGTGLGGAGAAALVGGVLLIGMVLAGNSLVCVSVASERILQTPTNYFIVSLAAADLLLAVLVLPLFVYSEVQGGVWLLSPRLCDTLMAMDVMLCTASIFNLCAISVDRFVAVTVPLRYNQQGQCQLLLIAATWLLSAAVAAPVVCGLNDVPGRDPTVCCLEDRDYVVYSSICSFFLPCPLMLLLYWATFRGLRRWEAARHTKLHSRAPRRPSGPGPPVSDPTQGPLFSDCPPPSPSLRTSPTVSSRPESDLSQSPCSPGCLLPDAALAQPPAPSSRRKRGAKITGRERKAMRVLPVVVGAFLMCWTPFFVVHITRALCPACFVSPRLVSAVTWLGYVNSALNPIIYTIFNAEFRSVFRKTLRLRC

[5] = target: T4, dopamine D4 receptors in human hippocampus (Homo sapiens, UniProt P21917); test: Binding to D4 receptors in human hippocampus
T4 construct: from tissue; host or cells: human hippocampus
T4 sequence (P21917 1-419): T1 sequence (P21917 1-419)

[6] = target: Dopamine Receptor D2 (Homo sapiens, UniProt P14416); test: D2 receptor binding activity (Example XXXIX)
Procedure: as §1, §2, §3

T2 sequence (P35462 whole entry): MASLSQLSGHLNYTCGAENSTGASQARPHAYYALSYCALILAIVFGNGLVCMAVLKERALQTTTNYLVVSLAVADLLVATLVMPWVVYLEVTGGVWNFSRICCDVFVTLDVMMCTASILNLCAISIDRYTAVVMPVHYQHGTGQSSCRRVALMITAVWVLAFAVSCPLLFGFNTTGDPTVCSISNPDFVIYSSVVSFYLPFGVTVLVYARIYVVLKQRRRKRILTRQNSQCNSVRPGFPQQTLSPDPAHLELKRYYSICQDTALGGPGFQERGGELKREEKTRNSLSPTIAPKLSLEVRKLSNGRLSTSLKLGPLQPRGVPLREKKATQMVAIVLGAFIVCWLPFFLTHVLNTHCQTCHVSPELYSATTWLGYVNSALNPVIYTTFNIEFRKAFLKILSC
Dopamine Receptor D2, sequence (P14416 whole entry): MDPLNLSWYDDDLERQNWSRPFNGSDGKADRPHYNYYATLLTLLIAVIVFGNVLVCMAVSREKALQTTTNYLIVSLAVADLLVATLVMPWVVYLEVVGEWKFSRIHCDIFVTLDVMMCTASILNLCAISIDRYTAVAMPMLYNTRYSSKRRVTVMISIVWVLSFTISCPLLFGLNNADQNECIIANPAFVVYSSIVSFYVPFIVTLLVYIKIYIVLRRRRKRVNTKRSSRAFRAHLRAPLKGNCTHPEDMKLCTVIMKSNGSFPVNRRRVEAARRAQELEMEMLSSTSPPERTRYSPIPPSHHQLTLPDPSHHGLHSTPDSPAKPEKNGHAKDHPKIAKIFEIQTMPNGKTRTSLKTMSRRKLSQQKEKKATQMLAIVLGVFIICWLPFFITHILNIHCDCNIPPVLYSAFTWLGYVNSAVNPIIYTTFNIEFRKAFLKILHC

SMILES | Ki [1] | Ki [2] | passive avoidance retention (time on platform at retest) vs vehicle ([3]; 0.25 mg/kg i.v. 5 minutes prior to training, retest about 24 hours later, dihydrochloride, 0.25 mg/kg) | passive avoidance acquisition vs vehicle ([3]; 0.03-1.0 mg/kg i.v. 5 minutes prior to training) | antagonist binding to D4 receptors in hippocampus [4] | antagonist binding to D4 receptors in hippocampus [5] | Ki [6]
c1ccc(-c2ncc(CN3CCN(c4ncccn4)CC3)[nH]2)cc1 [Compound 23, 2-Phenyl-4(5)-[(4-(2-pyrimidinyl)-piperazin-1-yl)-methyl]-imidazole dihydrochloride] | 2.7 nM | 8200 nM | significant improvement in memory; also recorded: significantly longer time | no significant differences for acquisition | antagonists binding to dopamine D4 receptors | antagonists binding to dopamine D4 receptors | 
c1ccc(-c2nc(CN3CCN(c4ccccn4)CC3)c[nH]2)cc1 [Compound 24, 2-Phenyl-4(5)-[(4-(2-pyridyl)-piperazin-1-yl)-methyl]-imidazole dihydrochloride] | 0.85 nM |  |  |  | antagonists binding to dopamine D4 receptors | antagonists binding to dopamine D4 receptors | 1030 nM
c1ccc(-c2ncc(CN3CCN(c4ccccc4)CC3)[nH]2)cc1 [Compound 45, 2-Phenyl-4(5)-[(4-phenyl-piperazin-1-yl)methyl]imidazole] | 5 nM | 169 nM |  |  | antagonists binding to dopamine D4 receptors | antagonists binding to dopamine D4 receptors | 239 nM
